Test results taken from PMC11475482, “The 2‐oxoglutarate/malate carrier extends the family of mitochondrial carriers capable of fatty acid and 2,4‐dinitrophenol‐activated proton transport” (Acta Physiologica (Oxford, England), 2024).
Positions count from the first letter of the chain named. One block for each molecule: values may come before it.

Columns and labels:
Experiment in all cases: planar lipid bilayer proton conductance
Assay type in all cases: biochemical
[1] = molecular target: T1, mOGC (2‐oxoglutarate/malate carrier, SLC25A11) (Mus musculus, UniProt Q9CR62)
T1 construct: 34 kDa monomer, dimer (~69 kDa) on SDS-PAGE (dimer possibly artefact); tag not mentioned
T1 sequence (Q9CR62 2-314): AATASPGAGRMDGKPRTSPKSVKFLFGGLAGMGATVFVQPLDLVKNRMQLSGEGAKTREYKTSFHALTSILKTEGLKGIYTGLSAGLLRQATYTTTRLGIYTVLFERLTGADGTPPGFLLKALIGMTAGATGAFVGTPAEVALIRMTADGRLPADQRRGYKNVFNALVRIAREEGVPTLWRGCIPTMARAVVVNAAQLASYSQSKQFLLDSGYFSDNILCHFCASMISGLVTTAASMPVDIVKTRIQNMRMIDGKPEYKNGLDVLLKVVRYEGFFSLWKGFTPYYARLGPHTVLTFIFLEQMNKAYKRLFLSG

[2] = molecular target: T2, mOGC (2‐oxoglutarate/malate carrier, SLC25A11) (Mus musculus, UniProt Q9CR62, R90S)
T2 construct: 34 kDa monomer, dimer (~69 kDa) on SDS-PAGE (dimer possibly artefact); tag not mentioned
T2 sequence (Q9CR62 2-314 R90S): T1 sequence (Q9CR62 2-314) with R89S

[3] = molecular target: T1, mOGC (2‐oxoglutarate/malate carrier, SLC25A11); conditions: read-out: % inhibition at 4 mM
[4] = molecular target: T1, mOGC (2‐oxoglutarate/malate carrier, SLC25A11); conditions: total membrane conductance with mOGC; activator (protonophore); pH 7.34, 32°C

Compound: O=C(O)C[C@H](O)C(=O)O [malate]
IC50 [1]: 100 ± 60 µM
inhibition at 2000 µM [2]: 74%

Compound: Nc1ncnc2c1ncn2[C@@H]1O[C@H](COP(=O)(O)OP(=O)(O)OP(=O)(O)O)[C@@H](O)[C@H]1O [ATP]
inhibition at 4000 µM [3]: 75%

More lines, now with the values ahead:

Gm at 15 mol% [4]: 92.5 ± 16.5 nS/cm^2
Compound: CCCCC/C=C\C/C=C\C/C=C\C/C=C\CCCC(=O)O [arachidonic acid]

IC50 [1]: 60 ± 10 µM
inhibition at 2000 µM [2]: 19%
Compound: O=C(O)CCC(=O)C(=O)O [2‐oxoglutarate]

IC50 [1]: 1000 ± 110 µM
Compound: O=C(O)CC(C(=O)O)c1ccccc1 (stereo not shown) [phenylsuccinate]
